Data reported in US9693554B2, “Plant growth accelerator” (COSMO OIL CO., LTD., priority 2013, dated 2017).

Tests used:
Format in all cases: in vivo
[1] = test system: Garland chrysanthemum; assay: Growth accelerating effect on garland chrysanthemum (pot grown); details: 200 L per 10 a, applied 4, 5, 6 and 7 weeks after seeding, measured 8 weeks after seeding
Description: Garland chrysanthemum was seeded in a pot and grown. The soil used was a sterilized compost containing fertilizer components (180 mg/L of nitrogen, 120 mg/L of phosphoric acid, 220 mg/L of potassium). The plants were set at 4 plants/pot and 4 pots/area. 4, 5, 6 and 7 weeks after seeding, 200 L per 10 a of aqueous solutions containing 0.06 ppm or 0.6 ppm of 5-amino-4-hydroxypentanoic acid was applied. 8 weeks after seeding, the fresh weight of the above-ground part was measured.

[2] = test system: Komatsuna turnip green; assay: Growth accelerating effect on Komatsuna turnip green (field grown); details: 0.06 ppm
Description: Komatsuna turnip green was seeded and grown at a field. The soil used was red clay. The plants were set at 40 to 52 plants/section and 2 to 3 sections/area. A coated fertilizer (containing 13% nitrogen, 11% phosphoric acid and 13% potassium) as a basal fertilizer was applied so that nitrogen was 50 kg per 10 a. 22 days after seeding, 1000 L per 10 a of an aqueous solution containing 0.06 ppm of 5-amino-4-hydroxypentanoic acid was applied twice. 42 days after seeding, the fresh weight of the above-ground part was measured.

[3] = test system: Broccoli; assay: Growth accelerating effect on broccoli (pot grown); details: 0.6 ppm
Description: Commercial young plants were settled in a pot and grown. The soil used was a sterilized compost containing fertilizer components (180 mg/L of nitrogen, 120 mg/L of phosphoric acid, 220 mg/L of potassium). The plants were set at 1 plant/pot and 4 pots/area. Every week (2 weeks through 10 weeks) after settling, 200 L per 10 a of an aqueous solution containing 0.6 ppm of 5-amino-4-hydroxypentanoic acid was applied. 11 weeks after settling, the fresh weight of the edible part was measured.

[4] = test system: Radish; assay: Growth accelerating effect on radish (pot grown); details: 200 L per 10 a, applied 15 and 21 days after seeding, measured 28 days after seeding
Description: Radish was seeded in a pot and grown. The soil used was a sterilized compost containing fertilizer components (180 mg/L of nitrogen, 120 mg/L of phosphoric acid, 220 mg/L of potassium). The plants were set at 4 plants/pot and 4 pots/area. 15 days after and 21 days after seeding, 200 L per 10 a of aqueous solutions containing 0.06 ppm or 0.6 ppm of 5-amino-4-hydroxypentanoic acid was applied. 28 days after seeding, the fresh weight of the edible part was measured.

[5] = test system: Barley; assay: Growth accelerating effect on barley (pot grown); details: 200 L per 10 a, applied 22 days after seeding, measured 35 days after seeding
Description: Barley was seeded in a pot and grown. The soil used was black soil. The plants were set at 4 plants/pot and 4 to 6 pots/area. A chemical fertilizer (containing 8% of nitrogen, phosphoric acid and potassium respectively) as a basal fertilizer was applied so that each of nitrogen, phosphoric acid and potassium was 5 kg per 10 a. 22 days after seeding, 200 L per 10 a of aqueous solutions containing 0.006 ppm, 0.06 ppm or 0.6 ppm, of 5-amino-4-hydroxypentanoic acid was applied. 35 days after seeding, the plant height, tillering and dry weight of the above-ground part were measured.

NCC(O)CCC(=O)O (centres unmarked) [5-amino-4-hydroxypentanoic acid]
Fresh weight of above-ground part (average) ([1]; 0.06 ppm): 25.5 g
Fresh weight of above-ground part (average) ([1]; 0.6 ppm): 24.8 g
Increase of fresh weight of the above-ground part compared with the control area ([2]; 42 days after seeding): 19%
Fresh weight of above-ground part (average) ([2]; field, 1000 L per 10 a, applied twice, 22 days after seeding, measured 42 days after seeding): 40.6 g
Increase of fresh weight of the edible part compared with the control area ([3]; 11 weeks after settling): 6%
Fresh weight of edible part (average) ([3]; 200 L per 10 a, applied every week (2 through 10 weeks) after settling, measured 11 weeks after settling): 39.2 g
Fresh weight of edible part (average) ([4]; 0.06 ppm): 2.26 g
Fresh weight of edible part (average) ([4]; 0.6 ppm): 2.54 g
Plant length (average) ([5]; 0.006 ppm aqueous solution): 19.4 cm
Dry weight of above-ground part (average) ([5]; 0.006 ppm): 103 mg
Tillering (average) ([5]; 0.006 ppm): 3.50
Plant length (average) ([5]; 0.06 ppm aqueous solution): 20.1 cm
Dry weight of above-ground part (average) ([5]; 0.06 ppm): 103 mg
Tillering (average) ([5]; 0.06 ppm): 3.53
Plant length (average) ([5]; 0.6 ppm aqueous solution): 20.2 cm
Dry weight of above-ground part (average) ([5]; 0.6 ppm): 112 mg
Tillering (average) ([5]; 0.6 ppm): 3.79
